Assay results from publication PMC10584882 (Communications Biology, 2023).
“And” between values parts separate entries of the source, which are not always exact repeats. Equal values may be shown once. “Also recorded” adds a separate entry of the source.

Experiments:
SARS-CoV-2 = test: Cytopathic effect inhibition assay in LC-HK2 cells; type: cell-based; settings: LC-HK2
[1] = S-Calpeptin toxicity experiment in Golden Syrian hamsters (weight, blood cell count, histopathology); type: in vivo, Golden Syrian hamsters (Mesocricetus auratus); design: leukocytes / neutrophils / lymphocytes / monocytes: unit not given here; settings: for leukocytes / lymphocytes / monocytes / neutrophils: blood cell count
CatL = biological target: T1, CatL (Homo sapiens, UniProt P07711); test: Reversibility of covalent cathepsin inhibition (CatL, 60 min incubation); type: biochemical; settings: 1 nM CatL, 1–80 nM inhibitor, 37 °C
T1 construct: made in house
From the text: We observed no increase in relative inhibition over time, thus concluding that the covalent bond between cathepsins and inhibitors is reversible.

[2] = 1 mg/kg S-Calpeptin, individual animals 1-3, 1 mg/kg
[3] = 2 mg/kg S-Calpeptin, individual animals 7-9, 2 mg/kg
[4] = 3 mg/kg S-Calpeptin, individual animals 10-12, 3 mg/kg

T1 sequence (P07711 114-333): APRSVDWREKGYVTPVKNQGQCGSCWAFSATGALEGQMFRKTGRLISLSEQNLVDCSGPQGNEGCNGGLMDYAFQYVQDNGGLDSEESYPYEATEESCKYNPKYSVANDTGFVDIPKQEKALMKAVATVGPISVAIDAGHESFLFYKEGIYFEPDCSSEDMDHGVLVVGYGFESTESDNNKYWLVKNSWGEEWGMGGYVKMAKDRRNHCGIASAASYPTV

CCCC[C@H](NC(=O)[C@H](CC(C)C)NC(=O)OCc1ccccc1)C(O)S(=O)(=O)[O-].[Na+] (some centres unmarked) [S-Calpeptin]
CPE inhibition (%) (SARS-CoV-2; 0.00000000001 μM): 0%
CPE inhibition (%) (SARS-CoV-2; 0.0000000001 μM): 0%
CPE inhibition (%) (SARS-CoV-2; 0.000000001 μM): 0%
CPE inhibition (%) (SARS-CoV-2; 0.00000001 μM, listed as S-Calpepin, 10 fM): 4.03% and 3.04%
CPE inhibition (%) (SARS-CoV-2; 0.0000001 μM, listed as S-Calpepin, 100 fM): 0% and 1.04%
CPE inhibition (%) (SARS-CoV-2; 0.000001 μM, listed as S-Calpepin, 1 pM): 0% and 4.71%
CPE inhibition (%) (SARS-CoV-2; 0.00001 μM, listed as S-Calpepin, 10 pM): 5.52% and 8.92%
CPE inhibition (%) (SARS-CoV-2; 0.0001 μM, listed as S-Calpepin): 7.19% and 6.77%
CPE inhibition (%) (SARS-CoV-2; 0.001 μM, listed as S-Calpepin): 23.15% and 18.35%
CPE inhibition (%) (SARS-CoV-2; 0.01 μM, listed as S-Calpepin): 22.53% and 19.69%
CPE inhibition (%) (SARS-CoV-2; 0.1 μM, listed as S-Calpepin): 56.52% and 41.43%
CPE inhibition (%) (SARS-CoV-2; 1 μM, listed as S-Calpepin): 87.89% and 72.23%
CPE inhibition (%) (SARS-CoV-2; 10 μM, listed as S-Calpepin): 85.17% and 78.3%
body weight, summarized data, average ([1]; 1 mg/kg S-Calpeptin, day 0, relative to day 0): 100%
body weight, summarized data, average ([1]; 1 mg/kg S-Calpeptin, day 1, relative to day 0): 100.862%
body weight, individual data ([1]; 1 mg/kg S-Calpeptin, day 2, individual animals A1-A3): 124 g
body weight, summarized data, average ([1]; 1 mg/kg S-Calpeptin, day 2, relative to day 0): 100.893%
body weight, summarized data, average ([1]; 1 mg/kg S-Calpeptin, day 3, relative to day 0): 100.862%
body weight, summarized data, average ([1]; 1 mg/kg S-Calpeptin, day 4, relative to day 0): 101.724%
body weight, summarized data, average ([1]; 1 mg/kg S-Calpeptin, day 5, relative to day 0): 102.852%
body weight, summarized data, average ([1]; 1 mg/kg S-Calpeptin, day 6, relative to day 0): 102.288%
body weight, summarized data, average ([1]; 2 mg/kg S-Calpeptin, day 0, relative to day 0): 100%
body weight, summarized data, average ([1]; 2 mg/kg S-Calpeptin, day 1, relative to day 0): 100.285%
body weight, summarized data, average ([1]; 2 mg/kg S-Calpeptin, day 2, relative to day 0): 100.287%
body weight, individual data ([1]; 2 mg/kg S-Calpeptin, day 3, individual animals A7-A9): 120 g
body weight, summarized data, average ([1]; 2 mg/kg S-Calpeptin, day 3, relative to day 0): 101.388%
body weight, summarized data, average ([1]; 2 mg/kg S-Calpeptin, day 4, relative to day 0): 100.836%
body weight, summarized data, average ([1]; 2 mg/kg S-Calpeptin, day 5, relative to day 0): 101.368%
body weight, individual data ([1]; 2 mg/kg S-Calpeptin, day 6, individual animals A7-A9): 120 g
body weight, summarized data, average ([1]; 2 mg/kg S-Calpeptin, day 6, relative to day 0): 101.919%
body weight, individual data ([1]; 3 mg/kg S-Calpeptin, day 0, individual animals A10-A12): 124 g and 135 g
body weight, summarized data, average ([1]; 3 mg/kg S-Calpeptin, day 0, relative to day 0): 100%
body weight, individual data ([1]; 3 mg/kg S-Calpeptin, day 1, individual animals A10-A12): 124 g and 135 g
body weight, summarized data, average ([1]; 3 mg/kg S-Calpeptin, day 1, relative to day 0): 100.275%
body weight, individual data ([1]; 3 mg/kg S-Calpeptin, day 2, individual animals A10-A12): 124 g and 135 g
body weight, summarized data, average ([1]; 3 mg/kg S-Calpeptin, day 2, relative to day 0): 100.275%
body weight, summarized data, average ([1]; 3 mg/kg S-Calpeptin, day 3, relative to day 0): 101.582%
body weight, summarized data, average ([1]; 3 mg/kg S-Calpeptin, day 4, relative to day 0): 102.133%
body weight, summarized data, average ([1]; 3 mg/kg S-Calpeptin, day 5, relative to day 0): 102.402%
body weight, summarized data, average ([1]; 3 mg/kg S-Calpeptin, day 6, relative to day 0): 102.671%
leukocytes [1, 2]: 4150 and 4010 and 4200
lymphocytes [1, 2]: 2407 and 2366 and 2310
monocytes [1, 2]: 581 and 521 and 798
neutrophils [1, 2]: 1079 and 1083 and 924
leukocytes [1, 3]: 1780 and 2200 and 1620
lymphocytes [1, 3]: 1104 and 748 and 486
monocytes [1, 3]: 214 and 352 and 680
neutrophils [1, 3]: 427 and 1056 and 389
leukocytes [1, 4]: 3000 and 1360 and 2190
lymphocytes [1, 4]: 1860 and 653 and 1270
monocytes [1, 4]: 450 and 163 and 350
neutrophils [1, 4]: 630 and 517 and 569
blood cell count finding (in words) ([1]; hamsters, 2 mg/kg or 3 mg/kg s.c. daily, end of seven-days protocol): marked leukopenia; also recorded: blood leukopenia
acute toxicity-related clinical signs or weight loss (in words) ([1]; hamsters, 1, 2 or 3 mg/kg s.c. daily): no signs of acute toxicity; also recorded: did not display acute toxicity-related clinical signs
side effects (in words) ([1]; hamsters, daily dose of 1 mg/kg s.c. over seven days): no apparent side effects
reversibility of covalent bond to cathepsin (CatL): reversible
